According to patent US11046745B2, “Peptide mimotopes of the CD3 T-cell co-receptor epsilon chain and uses thereof” (BioNTech SE, priority 2015, dated 2021):
Positions of bridges follow the written chain, without caps; N, C: chain ends. Residues, ends and D or L forms follow the SMILES beside them. No end group written: not given here. *: point of attachment. Biotin = O=C1N[C@H]2[C@H](CS[C@H]2CCCCC(=O)*)N1

Columns and labels:
[1] = target: TR66 antibody (CD3ε specific antibody, clone TR66); test: Binding analysis using peptide ELISA, biotinylated peptides on streptavidin plates, TR66; conditions: TR66; mean of at least two individual measurements; two-site saturation binding model; read-out: Apparent KD, ELISA
Experimental: FIG. 3. Binding analysis of phage derived variants using a peptide based ELISA. Biotinylated peptides were immobilized on streptavidin plates (Nunc) in a concentration of 0.75 μg/ml. After blocking 30 μg/ml TR66 or an unrelated antibody (control ab) were added and incubated for 1 h at 37° C. Binding was detected with an alkaline phosphatase conjugated goat anti-human IgG antibody (Sigma) and the chromogenic substrate PNPP (para-nitrophenyl phosphate). All reactions were performed as duplicates. SD values are presented as error bars.
For the detection of TR66 or OKT3 (Bio-X-Cell), the CD3 mimicking peptides were immobilized on streptavidin plates (Nunc) in a concentration of 0.75 μg/ml in PBS buffer for 1 hour at 37° C. Subsequently, the plate was washed three times with washing buffer (0.01% Tween-20 in PBS buffer) before it was blocked with 3% BSA in PBS overnight at 4° C. To detect TR66 or OKT3, the blocked plate was washed again three times with washing buffer followed by the addition of TR66 or OKT3 and incubation for 30 min at 37° C. After another washing step, it was incubated with an alkaline phosphatase conjugated Goat anti-human or anti-mouse IgG, Fe antibody (Jackson Immuno Research) for additional 30 min at 37° C. Finally, the plate was washed again before being incubated with 1.5 mg/ml of the substrate PNPP (para-nitrophenyl phosphate) in appropriate substrate buffer (1 M Diethanolamine, 0.05 mM MgCl2, 0.01% sodium azide, pH 9.8) for 30 min at RT in the dark. 3 M KOH was used to stop the enzymatic reaction. Absorbance was measured with a microplate reader (Infinite M200, Tecan). For dual wavelength analysis, 405 nm was chosen as measurement wavelength and 492 nm as reference wavelength. Absorbance values were calculated by subtraction of the measured values for the reference wavelength and for the measurement wavelength. Calculation of apparent KD values was done by fitting the data with Sigma Plot 10 using a two-site saturation binding model.

[2] = tested on: TR66 antibody (CD3ε specific antibody, clone TR66); test: Binding analysis using biolayer interferometry (BLI), Octet Red, biotinylated peptides on streptavidin sensors; conditions: for Yes/no binding, BLI: 500 nM TR66 antibody, one concentration; for Binding of TR66 in detailed BLI analysis (FIG. 5): TR66 1.5625 to 100 nM, dissociation constant could not be fitted
Experimental: FIG. 5. Comparative binding analysis of matured TR66 mimotopes aCD3-04-002 and aCD3-04-013 using biolayer interferometry (BLI) on an Octet Red system (fortéBIO). Biotinylated peptides were immobilized onto streptavidin (SA) sensors. After blocking with 1× blocking buffer and biocytin association and dissociaten rates of TR66 binding were recorded over a period of 2400 sec respectively. The antibody was used in a range of 1.5625 to 100 nM (1.5625, 3.125, 6.25, 12.5, 25, 50, 100 nM) for each analyzed peptide.
Binding analysis was performed using streptavidin (SA) sensors on an Octet Red system (fortéBIO). 5 μg/ml of biotinylated peptides were used for loading (200 μl per sensor). […] Remained biotin binding sites on coated streptavidin sensors were blocked using 100 μg/ml biocytin (Sigma-Aldrich) for 5 minutes. For binding mode analysis of different peptides 500 nM TR66 antibody was used in the association step. For detailed analysis the antibody was used in a range of 1.5625 to 100 nM (1.5625, 3.125, 6.25, 12.5, 25, 50, 100 nM) for each analyzed peptide. The following program was used: • Baseline: 1000 rpm for 180 sec. • Load: 1000 rpm for 900 sec. • Baseline: 1000 rpm for 180 sec. • Blocking: 1000 rpm for 300 sec. • Association: 1000 rpm for 1200-2400 sec. • Dissociation: 1000 rpm for 1200-2400 sec.
The peptides displaying the highest binding affinities from the peptide microarray experiments were synthesized by standard Fmoc-based solid-phase-synthesis protocols and purified (HPLC purity: >80%). The binding characteristics of each peptide were determined. In the first instance all peptides were analysed via biolayer interferometry (BLI) to get a first impression whether the respective variant has a significant binding property at all (yes/no binding, Table 2). At his point, only one TR66 concentration (500 nM) was tested. Except variants aCD3-04-010 and aCD3-04-012 all peptides show a measurable binding activity.

[3] = tested on: Muromonab-CD3 (Orthoclone OKT3), CD3-specific monoclonal antibody; test: Peptide ELISA for cross-reactivity to OKT3; format: binding, murine
Experimental: FIG. 6. Comparative binding analysis of maturated TR66 mimotope aCD3-04-013 to approved antibody Muromanab-CD3 (Orthoclone OKT3®). Biotinylated peptides were immobilized on streptavidin plates (Nunc). After blocking different concentrations (0, 156, 312, 625, 1250, 5000 and 10000 ng/ml) of TR66, OKT3 or an unrelated antibody (control ab) were added and incubated for 1 h at 37° C. Binding was detected with an alkaline phosphatase conjugated goat anti-human IgG antibody (Sigma) and the chromogenic substrate PNPP (para-nitrophenyl phosphate). All reactions were performed as duplicates. SD values are presented as error bars.
For the detection of TR66 or OKT3 (Bio-X-Cell), the CD3 mimicking peptides were immobilized on streptavidin plates (Nunc) in a concentration of 0.75 μg/ml in PBS buffer for 1 hour at 37° C. Subsequently, the plate was washed three times with washing buffer (0.01% Tween-20 in PBS buffer) before it was blocked with 3% BSA in PBS overnight at 4° C. To detect TR66 or OKT3, the blocked plate was washed again three times with washing buffer followed by the addition of TR66 or OKT3 and incubation for 30 min at 37° C. […] Absorbance was measured with a microplate reader (Infinite M200, Tecan). […] Absorbance values were calculated by subtraction of the measured values for the reference wavelength and for the measurement wavelength. […]

Compound	Kd [1] [nM]	Yes/no binding, BLI [2]	Binding of TR66 in detailed BLI analysis (FIG. 5) [2]	Binding of OKT3 to mimotope, ELISA titration (FIG. 6) ([3]; OKT3 titration 0-10000 ng/ml)	Affinity of OKT3 binding compared to TR66 binding, ELISA ([3]; different detection antibodies for TR66 and OKT3)
C[C@@H](O)[C@@H]1NC(=O)[C@@H](NC(=O)[C@@H](N)Cc2c[nH]c3ccccc23)CSSC[C@@H](C(=O)NCC(=O)NCC(=O)NCC(=O)N[C@@H](CO)C(=O)N[C@@H](CCCCNC(=O)CCCC[C@@H]2SC[C@@H]3NC(=O)N[C@@H]32)C(=O)O)NC(=O)[C@H](CCC(N)=O)NC(=O)[C@@H]2CCCN2C(=O)[C@H](CC(=O)O)NC(=O)CNC(=O)[C@@H]2CCCN2C(=O)[C@H](CCCNC(=N)N)NC1=O [aCD3-04-006, WCTRPGDPQC-GGGS-K(Bio)] (H-WCTRPGDPQCGGGSK(Biotin)-OH; disulfide 2-10)	226	Yes			
ACTR(NMI)GDPQC-GGGS-K(Bio) (ACTRLGDPQCGGGSK; not fully specified; N-methylisoleucine; GGGS linker; biotinylated lysine; MOD_RES (5)..(5) N-methylisoleucine; MOD_RES (15)..(15) K(Bio)) [aCD3-04-010]		No			
C[C@H](N)C(=O)N[C@H]1CSSC[C@@H](C(=O)NCC(=O)NCC(=O)NCC(=O)N[C@@H](CO)C(=O)N[C@@H](CCCCNC(=O)CCCC[C@@H]2SC[C@@H]3NC(=O)N[C@@H]32)C(=O)O)NC(=O)[C@H](Cc2ccc(O)cc2)NC(=O)[C@@H]2CCCN2C(=O)[C@H](CC(=O)O)NC(=O)CNC(=O)[C@@H]2CCCN2C(=O)[C@H](CCCNC(=N)N)NC(=O)[C@H]([C@@H](C)O)NC1=O [aCD3-04-009, ACTRPGDPYC-GGGS-K(Bio)] (H-ACTRPGDPYCGGGSK(Biotin)-OH; disulfide 2-10)	167	Yes			
C[C@H](N)C(=O)N[C@H]1CSSC[C@@H](C(=O)NCC(=O)NCC(=O)NCC(=O)N[C@@H](CO)C(=O)N[C@@H](CCCCNC(=O)CCCC[C@@H]2SC[C@@H]3NC(=O)N[C@@H]32)C(=O)O)NC(=O)[C@H](CCC(N)=O)NC(=O)[C@@H]2CCCN2C(=O)[C@H](CC(=O)O)NC(=O)[C@H](CCC(=O)O)NC(=O)[C@@H]2CCCN2C(=O)[C@H](CCCNC(=N)N)NC(=O)[C@H]([C@@H](C)O)NC1=O [aCD3-04-007, ACTRPEDPQC-GGGS-K(Bio)] (H-ACTRPEDPQCGGGSK(Biotin)-OH; disulfide 2-10)	299	Yes			
ACTRPWDPQC-GGGS-K(Bio) (ACTRPWDPQCGGGSK(Biotin); disulfide 2-10 (inferred)) [aCD3-04-012]		No			

Further lines, results first:

Kd [1] [nM]	Yes/no binding, BLI [2]	Binding of TR66 in detailed BLI analysis (FIG. 5) [2]	Binding of OKT3 to mimotope, ELISA titration (FIG. 6) ([3]; OKT3 titration 0-10000 ng/ml)	Affinity of OKT3 binding compared to TR66 binding, ELISA ([3]; different detection antibodies for TR66 and OKT3)	Compound
164	Yes				C[C@H](N)C(=O)N[C@H]1CSSC[C@@H](C(=O)NCC(=O)NCC(=O)NCC(=O)N[C@@H](CO)C(=O)N[C@@H](CCCCNC(=O)CCCC[C@@H]2SC[C@@H]3NC(=O)N[C@@H]32)C(=O)O)NC(=O)[C@H](C)NC(=O)[C@@H]2CCCN2C(=O)[C@H](CC(=O)O)NC(=O)CNC(=O)[C@@H]2CCCN2C(=O)[C@H](CCCNC(=N)N)NC(=O)[C@H]([C@@H](C)O)NC1=O [aCD3-04-008, ACTRPGDPAC-GGGS-K(Bio)] (H-ACTRPGDPACGGGSK(Biotin)-OH; disulfide 2-10)
78	Yes	concentration-dependent binding			C[C@H](N)C(=O)N[C@H]1CSSC[C@@H](C(=O)NCC(=O)NCC(=O)NCC(=O)N[C@@H](CO)C(=O)N[C@@H](CCCCNC(=O)CCCC[C@@H]2SC[C@@H]3NC(=O)N[C@@H]32)C(=O)O)NC(=O)[C@H](CCC(N)=O)NC(=O)[C@@H]2CCCN2C(=O)[C@H](CC(=O)O)NC(=O)[C@H](CC(=O)O)NC(=O)[C@@H]2CCCN2C(=O)[C@H](CCCNC(=N)N)NC(=O)[C@H]([C@@H](C)O)NC1=O [aCD3-04-002, ACTRPDDPQC-GGGS-K(Bio)] (H-ACTRPDDPQCGGGSK(Biotin)-OH; disulfide 2-10)
111	Yes				C[C@H](N)C(=O)N[C@H]1CSSC[C@@H](C(=O)NCC(=O)NCC(=O)NCC(=O)N[C@@H](CO)C(=O)N[C@@H](CCCCNC(=O)CCCC[C@@H]2SC[C@@H]3NC(=O)N[C@@H]32)C(=O)O)NC(=O)[C@H](Cc2c[nH]c3ccccc23)NC(=O)[C@@H]2CCCN2C(=O)[C@H](CC(=O)O)NC(=O)[C@H](CC(=O)O)NC(=O)[C@@H]2CCCN2C(=O)[C@H](CCCNC(=N)N)NC(=O)[C@H]([C@@H](C)O)NC1=O [aCD3-04-014, ACTRPDDPWC-GGGS-K(Bio)] (H-ACTRPDDPWCGGGSK(Biotin)-OH; disulfide 2-10)
4	Yes	concentration-dependent binding	specific binding	slightly lower affinity	C[C@H](N)C(=O)N[C@H]1CSSC[C@@H](C(=O)NCC(=O)NCC(=O)NCC(=O)N[C@@H](CO)C(=O)N[C@@H](CCCCNC(=O)CCCC[C@@H]2SC[C@@H]3NC(=O)N[C@@H]32)C(=O)O)NC(=O)[C@H](CCC(=O)O)NC(=O)[C@@H]2CCCN2C(=O)[C@H](CC(=O)O)NC(=O)[C@H](CC(=O)O)NC(=O)[C@@H]2CCCN2C(=O)[C@H](CCCNC(=N)N)NC(=O)[C@H]([C@@H](C)O)NC1=O [aCD3-04-013, ACTRPDDPEC-GGGS-K(Bio)] (H-ACTRPDDPECGGGSK(Biotin)-OH; disulfide 2-10)
